Laboratory results published in the supplement of paper PMC11208160.

Assay: recombinant barcode read abundance after kanamycin selection (control-corrected) (log10(CPM+1)); higher = more efficient recombination; sequences stand for … in AGTGCAGAGAAAATCGGCCAGTTTTCTCTGCCTGCAGTCCGCATGCCGT…AGATTTATGCAGCGGACTGCCTTTCTCCCAAAGTGATAAACCGGACAGTATCATGGACCGGTTTTCCCGGTAATCCGTATTTGCAAGGTTGGTTTCACT; site = the 11-nt target
Description: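 Pooled E. coli target-specificity screen for the IS621 bridge recombinase. Each library plasmid pairs an 11-nt target (CT core) with a bridge RNA whose target-binding loop (9-nt LTG + 4-nt RTG) is reprogrammed; the rest of the 177-nt WT IS621 bridge RNA scaffold is fixed. The plasmid is co-electroporated with a WT donor plasmid; recombinase is induced with 0.1 mM IPTG and recombinants are selected on kanamycin. Recombinant barcodes are sequenced, converted to CPM, averaged over two biological replicates and corrected by the unselected control CPM. Molecule = full bridge RNA written as DNA: LTG = specificity nt 1-9, RTG = reverse complement of specificity nt 8-11, in the WT scaffold.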
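Also: IS621 recombinase and bridge RNA in Escherichia coli cells.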

Sequence	recombinant barcode read abundance (log10)
AATGGGACTTGGGTTCTAACCTGTTGCCT (site AATGGGACTAG)	1.72
AATGGGACTTGGGTTCTAACCTGTTGCCT (site AATGGGCCTAG)	0.171
AATGGGACTTGGGTTCTAACCTGTTGCCT (site AATGGGGCTAG)	0.222
AATGGGACTTGGGTTCTAACCTGTTGCCT (site AATGGGTCTAG)	0.0882
AATGGGGCTTGGGTTCTAACCTGTTGCCT (site AATGGGACTAG)	0.369
AATGGGGCTTGGGTTCTAACCTGTTGCCT (site AATGGGCCTAG)	0.189
AATGGGGCTTGGGTTCTAACCTGTTGCCT (site AATGGGGCTAG)	0.79
AATGGGGCTTGGGTTCTAACCTGTTGCCT (site AATGGGTCTAG)	0.274
AATGTATCTTGGGTTCTAACCTGTTGCCT (site AATGAATCTAG)	0
AATGTATCTTGGGTTCTAACCTGTTGCCT (site AATGCATCTAG)	0.0382
AATGTATCTTGGGTTCTAACCTGTTGCCT (site AATGGATCTAG)	0.0435
AATGTATCTTGGGTTCTAACCTGTTGCCT (site AATGTATCTAG)	1.17
AATTCGACTTGGGTTCTAACCTGTTGCCT (site AATTCGACTAG)	0.399
AATTCGACTTGGGTTCTAACCTGTTGCCT (site ACTTCGACTAG)	0.0747
AATTCGACTTGGGTTCTAACCTGTTGCCT (site AGTTCGACTAG)	0.222
AATTCGACTTGGGTTCTAACCTGTTGCCT (site ATTTCGACTAG)	0
AATTGTCCTTGGGTTCTAACCTGTTGCTT (site AATTGTCCTAA)	0.246
AATTGTCCTTGGGTTCTAACCTGTTGCTT (site AATTGTCCTAC)	0.257
AATTGTCCTTGGGTTCTAACCTGTTGCTT (site AATTGTCCTAG)	0.0453
AATTGTCCTTGGGTTCTAACCTGTTGCTT (site AATTGTCCTAT)	0.125
AATTGTTCTTGGGTTCTAACCTGTTGCCT (site AATGCTTCTAG)	0.028
AATTGTTCTTGGGTTCTAACCTGTTGCCT (site AATTGTTCTAG)	0.253
AATTTCTCTTGGGTTCTAACCTGTTGCCT (site AATTTCTCTAG)	0.0321
AATTTCTCTTGGGTTCTAACCTGTTGCCT (site CATTTCTCTAG)	0.0907
AATTTCTCTTGGGTTCTAACCTGTTGCCT (site GATTTCTCTAG)	0.496

Sequence	recombinant barcode read abundance (log10)
AATTTCTCTTGGGTTCTAACCTGTTGCCT (site TATTTCTCTAG)	0.0924
ACAAAGACTTGGGTTCTAACCTGTTGCGC (site ACAAAGACTGC)	0.656
ACAAAGACTTGGGTTCTAACCTGTTGCGC (site ACACAGACTGC)	0.242
ACAAAGACTTGGGTTCTAACCTGTTGCGC (site ACAGAGACTGC)	0.326
ACAAAGACTTGGGTTCTAACCTGTTGCGC (site ACATAGACTGC)	0.137
ACAAAGGCTTGGGTTCTAACCTGTTGCGG (site ACAAAAGCTCC)	1.69
ACAAAGGCTTGGGTTCTAACCTGTTGCGG (site ACAAAGGCTCC)	2.51
ACAAGACCTTGGGTTCTAACCTGTTGCAT (site ACAAGACCTAT)	1.47
ACAAGACCTTGGGTTCTAACCTGTTGCAT (site TTCTAGTCTTA)	0.0713
ACAATACCTTGGGTTCTAACCTGTTGCCT (site ACAATACCTAG)	1.16
ACAATACCTTGGGTTCTAACCTGTTGCCT (site ATAATACCTAG)	0.143
ACAATAGCTTGGGTTCTAACCTGTTGCTG (site ACAATAGCTCA)	0.738
ACAATAGCTTGGGTTCTAACCTGTTGCTG (site ACACTAGCTCA)	0.0138
ACAATAGCTTGGGTTCTAACCTGTTGCTG (site ACAGTAGCTCA)	0.0118
ACAATAGCTTGGGTTCTAACCTGTTGCTG (site ACATTAGCTCA)	0.0649
ACAATGACTTGGGTTCTAACCTGTTGCCT (site ACAATGACTAG)	0.904
ACAATGACTTGGGTTCTAACCTGTTGCCT (site ACAGTGACTAG)	0.132
ACACCGCCTTGGGTTCTAACCTGTTGCCT (site ACACCGCCTAG)	0.299
ACACCGCCTTGGGTTCTAACCTGTTGCCT (site CCACCGCCTAG)	0.118
ACACCGCCTTGGGTTCTAACCTGTTGCCT (site GCACCGCCTAG)	0.192
ACACCGCCTTGGGTTCTAACCTGTTGCCT (site TCACCGCCTAG)	0.118
ACACGTGCTTGGGTTCTAACCTGTTGCGA (site ACACGTGCTTC)	1.46
ACACGTGCTTGGGTTCTAACCTGTTGCGA (site CAGAAGTCTAA)	0.215
ACACTAGCTTGGGTTCTAACCTGTTGCTG (site ACAATAGCTCA)	0.313
ACACTAGCTTGGGTTCTAACCTGTTGCTG (site ACACTAGCTCA)	1.19

Sequence	recombinant barcode read abundance (log10)
ACACTAGCTTGGGTTCTAACCTGTTGCTG (site ACAGTAGCTCA)	0.445
ACACTAGCTTGGGTTCTAACCTGTTGCTG (site ACATTAGCTCA)	0.0774
ACAGAGACTTGGGTTCTAACCTGTTGCGC (site ACAAAGACTGC)	0.372
ACAGAGACTTGGGTTCTAACCTGTTGCGC (site ACACAGACTGC)	0.127
ACAGAGACTTGGGTTCTAACCTGTTGCGC (site ACAGAGACTGC)	1.46
ACAGAGACTTGGGTTCTAACCTGTTGCGC (site ACATAGACTGC)	0.221
ACAGCCTCTTGGGTTCTAACCTGTTGCCT (site ACAGCCTCTAG)	2.84
ACAGCCTCTTGGGTTCTAACCTGTTGCCT (site ACAGGCTCTAG)	0.156
ACAGGCTCTTGGGTTCTAACCTGTTGCCT (site ACAGCCTCTAG)	0.0406
ACAGGCTCTTGGGTTCTAACCTGTTGCCT (site ACAGGCTCTAG)	1.82
ACAGGTACTTGGGTTCTAACCTGTTGCCT (site ACAGGTACTAG)	1.18
ACAGGTACTTGGGTTCTAACCTGTTGCCT (site CCAGGTACTAG)	0.428
ACAGGTACTTGGGTTCTAACCTGTTGCCT (site GCAGGTACTAG)	0.0917
ACAGGTACTTGGGTTCTAACCTGTTGCCT (site TCAGGTACTAG)	0.456
ACAGGTCCTTGGGTTCTAACCTGTTGCGA (site ACAGGTCCTTC)	3.05
ACAGGTCCTTGGGTTCTAACCTGTTGCGA (site GTCATGTCTCA)	0
ACAGTATCTTGGGTTCTAACCTGTTGCTG (site ACAGTATCTCA)	0.479
ACAGTATCTTGGGTTCTAACCTGTTGCTG (site TGCAATACTAT)	0
ACATAGTCTTGGGTTCTAACCTGTTGCCT (site ACATAGTCTAG)	1.75
ACATAGTCTTGGGTTCTAACCTGTTGCCT (site AGATACTCTAG)	0.0816
ACATATCCTTGGGTTCTAACCTGTTGCGT (site ACATATCCTAC)	1.78
ACATATCCTTGGGTTCTAACCTGTTGCGT (site ACCTACCCTAC)	0.0409
ACATGAACTTGGGTTCTAACCTGTTGCCT (site ACATGAACTAG)	1.47
